Measurements from paper PMC12498136, “Synthesis and biological evaluation of novel carnosic acid derivatives with anticancer activity” (RSC Advances, 2025).

Legend:
[1] = test system: HCT116 cells; assay: MTT cell viability assay in HCT116 cells; type: cell-based
Procedure: The MTT assay was used to assess the effect of the compounds on cell viability. […] Subsequently, the culture medium was switched with a new medium containing DMSO (control) or the compound at a specified concentration. […] The plates were then incubated for 1 h at 37 °C. After this time, the supernatant was aspirated, and the formazan crystals were dissolved in 100 μL of DMSO in each well. Relative cell viability was calculated by measuring absorbance at 570 nm using a Benchmark Plus Microplate Reader (Bio-Rad Laboratories, Hercules, CA, USA).

[2] = test system: SW480 cells; assay: Apoptosis assay (annexin V-FITC/PI, flow cytometry); type: cell-based; conditions: SW480, 6.3 μM, 24, 48 or 72 h
Procedure: Our objective was to assess whether the anticancer activity observed in SW480 cells treated with compound 17 results from the activation of apoptosis.
SW480 cells were seeded at a density of 1.68 × 10^5 cells per well in 6-well plates and incubated at 37 °C. […] Adherent cells were harvested by trypsinization, and they were washed with DPBS and collected by centrifugation along with the cells in suspension. Cells were resuspended in 3 μL annexin V FITC and 95 μL binding buffer containing 140 mM NaCl, 2.5 mM CaCl2, and 10 mM HEPES/NaOH (pH 7.4). The cell suspension was then incubated in the dark, at room temperature for 30 min. The cells were then stained with 510 μL of a mixture containing 500 μL of binding buffer and 10 μL of PI solution (1 mg mL^−1). Finally, data from 1 × 10^4 cells were collected through fluorescence activated cell sorting (FACS) analysis using a Gallios flow cytometer (Beckman Coulter, Brea, CA, USA) at 488 nm.

In the case of `CC(=O)Oc1c(C(C)C)cc2c(c1OC(C)=O)[C@@]1(NC(=O)OCC(C)C)CCCC(C)(C)[C@@H]1CC2` [Compound 17, (4bR,8aS)-8,8-Dimethyl-4b-{[(2-methylpropoxy)carbonyl]amino}-2-(propan-2-yl)-4b,5,6,7,8,8a,9,10-octahydrophenanthrene-3,4-diyl diacetate], the “fold more active than cisplatin” value ([1]; HCT116 cells, ratio of IC50 values) is reported as 1.2 fold, the IC50 ([1]; Homo sapiens, HCT-116, 72 h, read-out: IC50 HCT116) is reported as 17 ± 2 µM and the induction of apoptosis [2] is reported as “did not induce apoptosis”.
